Source: PubChem BioAssay (NCI)
Several values for one entry are separate records, joined by “and”; a condition that tells them apart may be missing. Equal values may be shown once.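 The compound was tested at five concentrations on cells cultured in 96-well plates, with a 48-hour exposure period. GI50 is the concentration that inhibits growth by half. TGI marks complete inhibition of growth.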

What follows are compounds tested on MDA-MB-468 breast (assay: growth of human tumour cells (NCI), 48 h).

SMILES	GI50	TGI
COc1cc(-c2nn(-c3cccc(NC(=O)Nc4ccc(Cl)c(C(F)(F)F)c4)c3)cc2-c2ccncc2)ccc1Cl	833 nM	4420 nM
COc1ccc(Nc2nc(NCCNc3ccnc4cc(Cl)ccc34)nc(N3CCOCC3)n2)cc1	1620 nM	4030 nM
Nc1ncc(-c2ccc3ncnc(Nc4cccc(Cl)c4)c3c2)cn1	56.5 nM	378 nM
COC[C@H](NC(=O)c1cnc(C)s1)C(=O)N[C@@H](COC)C(=O)N[C@@H](Cc1ccccc1)C(=O)[C@@]1(C)CO1	14800 nM	38100 nM
CCC(CC)n1cnc2c(-c3cnc(N)cn3)nc(N3CC4CCC(C3)O4)nc21	189 nM	2810 nM
C[C@@H]1C[C@H](N)C[C@H](c2ccncc2NC(=O)c2ccc(F)c(-c3c(F)cccc3F)n2)C1	4160 nM and 2910 nM	18300 nM and > 10000 nM
Cc1ccc2c(C(C[N+](=O)[O-])c3ccccc3)c(-c3ccccc3)[nH]c2c1 (centres undefined)	12700 nM	> 95000 nM
COc1cc2nc(N3CCCN(C)CC3)nc(NC3CCN(Cc4ccccc4)CC3)c2cc1OC	1500 nM	3190 nM
Cc1c(CN2CCN(C(=O)[C@H](C)O)CC2)sc2c(N3CCOCC3)nc(-c3cnc(N)nc3)nc12	124 nM and 79.3 nM	1140 nM and 456 nM
Cc1c(Cn2c(C)nc3c(C(=O)O)cc(N4CCOCC4)cc32)cccc1C(F)(F)F	26700 nM	> 100000 nM
CCOC(=O)C(=Cc1ccc(C#N)cc1)C(=O)OCC	1980 nM	3840 nM
CC1=C([Te]c2ccccc2)C(=O)c2ccccc2C1=O	442 nM	2120 nM
COc1ccc2c(c1)c(-c1nc(-c3cn(C)c4ccncc34)cs1)cn2C	1620 nM	3200 nM
Cn1ncc(Cl)c1-c1cc(C(=O)N[C@H](CN)Cc2cccc(F)c2)sc1Cl	38.7 nM and 92 nM	582 nM and 1390 nM
CC1(C)N=C(N)N=C(N)N1c1ccc(CNC(=O)Nc2ccc(S(=O)(=O)F)c(Cl)c2)c(Cl)c1	689 nM	> 100000 nM
COc1cc2nc(Nc3cccc(Cl)c3)nc(N)c2cc1OC	4370 nM	17300 nM
Fc1cccc(COc2ccc(Nc3ncnc4onc(-c5ccccc5)c34)cc2)c1	116 nM	2160 nM
C(=N\Nc1ncc(-c2cc3cc4c(cc3o2)OCO4)s1)/c1ccco1	2140 nM	7140 nM
COc1ccc(Br)cc1NC(=O)Nc1cccc2c1ccn2Cc1ccnc(N)c1	2850 nM and 4540 nM	12000 nM and > 10000 nM

SMILES	GI50	TGI
COC(=O)/C=C1/SC(=Nc2cccc(Cl)c2)N(CCc2c[nH]c3ccc(O)cc23)C1=O	1990 nM	4400 nM
NC(=S)N/N=C/c1ccc(OC(=O)COc2cc(Cl)c(Cl)cc2Cl)cn1	2410 nM	8710 nM
CC1COc2c(N3CCN(C)CC3)c(F)cc3c(=O)c(C(=O)N/N=C/c4cc[nH]c4)cn1c23 (centres undefined)	412 nM	1730 nM
COc1ccc(C(C)=C(c2ccc(OCCN3CCCCCC3)cc2)c2ccc(OCCN3CCCCCC3)cc2)cc1	806 nM	3050 nM
COc1cc(CCC[P+](c2ccccc2)(c2ccccc2)c2ccccc2)c(OC)c2c1OCO2	292 nM	950 nM
COc1ccc(-c2ncnc3c2ncn3CC#CCCl)cc1	2370 nM	7290 nM
C=C(C)[C@@H]1CC[C@]2(CO)CC[C@]3(C)[C@H](CC[C@@H]4[C@@]5(C)CCCNC(C)(C)[C@@H]5CC[C@]43C)[C@@H]12	1660 nM	3380 nM
CN1C(=O)CCC(N2C(=O)c3cccc(NCCOCCOCCNC(=O)c4cc5c(o4)C(=O)c4ccccc4C5=O)c3C2=O)C1=O (centres undefined)	1760 nM	5040 nM
Cc1ccc(CNc2ccc3nc(CCC4CCCCC4)[nH]c3c2)cc1	1520 nM	3350 nM
O=S(=O)(N=C1C(Cl)=C(Cl)C(=NS(=O)(=O)c2ccccc2)C(Cl)=C1Cl)c1ccccc1	15100 nM	35900 nM
CC(=O)O.CN1[CH-]N(Cc2ccc(C#N)cc2)c2ccccc21.[Ag+]	12800 nM	28500 nM
CCOC(=O)c1[nH]c2cc(Cl)ccc2c1[C@@H](C(=O)NC(C)(C)C)N(CC)C(=O)CCCCC#Cc1cccc2c1CN(C1CCC(=O)NC1=O)C2=O (some centres undefined)	< 10 nM	< 14.2 nM
CN(C)c1ccc(/C=N/NC(N)=S)nc1	2210 nM	8410 nM
CCCc1nn(C)c2c(=O)[nH]c(-c3cc(S(=O)(=O)N4CCN(C)CC4)ccc3OCC)nc12	35000 nM	> 100000 nM
O=C1c2c(c(=O)[nH]c3ccccc23)[C@H](c2ccccc2)[C@@H]2CCCN12	2920 nM	14300 nM
COc1cnc2c(c1)C(=O)c1c-2n(CCCN2CCCC2)c(=O)c2cc([N+](=O)[O-])ccc12	27.1 nM	1030 nM
CCN1CCN(CCNc2nccc(-c3c(-c4ccc(F)c(O)c4)nc4occn34)n2)S1(=O)=O	4530 nM	> 100000 nM
Cc1cc2c(F)c(Oc3ncnc(Nc4ccc(N5C[C@@H](C)N[C@@H](C)C5)cc4)c3C#N)cc(F)c2[nH]1	2050 nM	4750 nM
